Consider 11 compounds from US5817668A, “S-heteroatom containing alkyl substituted-3-oxo-pyrido[1,2-A]benzimidozole-4-carboxamide derivatives useful in treating central nervous system disorders” (Ortho Pharmaceutical Corporation, priority 1997, dated 1998).

What is called ED50 is the midpoint of the dose-response relation. As usually defined, the IC50 is the concentration that gives 50% inhibition.

Assay [1] has as its system metrazol-induced convulsions in male CD1 mice. As to the kind of experiment: Suppression of metrazol-induced clonic convulsions in adult male mice. In kind it is in vivo, mouse (male CD1). Conditions: Mus musculus, 0.5 h, >30 = active dose not determined. The method, then: […] Water was not withheld except during the period of observations. […] Metrazol was dissolved in 0.9% sodium chloride solution, and its dose volume was 10 ml/kg. Animals were housed individually for observation of clonic convulsions, tonic convulsions and death for a period of 30 min. […] The biological assay was considered to be valid if the effects of a known anticonvulsant (positive control) were detected, within the same experiment. Activity was reported as percent reduction of clonic convulsions from the vehicle group.

The test system of assay [2] is behavior suppressed by punishment (conflict) in male rats. Kind of assay: Suppression of anxiety in adult male rat (punished-licking conflict test, Vogel). In kind it is in vivo. The conditions noted are these: minimum effective dose, >10 = active dose not yet determined; for minimal effective dose: Rattus norvegicus. The protocol: Male rats were deprived of water for 48 hours and were deprived of food for 24 hours prior to testing. After the first 24 hours of water deprivation, they were placed in the conflict chamber for a training period; wherein, they were allowed 200 unpunished licks from a bottle containing tap water. The experiment was run the next day. At the expected time of peak activity, the animals were placed in the chamber and allowed access to tap water. […] Their first lick initiates a 3-min test session. Subsequently,every 20th lick was punished by a 0.2-s shock delivered via the stainless-steel drinking-tube.
The Wilcoxon rank-sum test (Mann-Whitney U-test) was used to test for an increase (p<0.05, 1-tailed) in the median number of shocks in drug-treatedgroups, compared to a concurrently run vehicle-treated group. The biological assay is considered to be valid if the effects of a known anxiolytic (positive control) are detected, within the same experiment.

The target in assay [3] is benzodiazepine site of the GABA-A receptor. As to the kind of experiment: Benzodiazepine receptor binding: inhibition of 3H-flunitrazepam binding to prepared receptor membranes. Conditions: read-out: GABAA Receptor Binding IC50; 3H-flunitrazepam ca. 3 nM, 10-20 min, 25 °C; >10,000 = not active.
The mark [4] stands for this setting: ip, ip, read-out: Mouse Metrazol ED50, ip.
The mark [5] stands for this setting: po, po, read-out: Mouse Metrazol ED50, po.
The mark [6] stands for this setting: ip, read-out: Rat Conflict MED, ip.
Setting [7] is: po, read-out: Rat Conflict MED, po.

Where two headings read alike, the source gives them in different places.

Take `CN1CCCC(N2C3=C(C(=O)Nc4c(F)cccc4F)C(=O)CCN3c3ccc(F)cc32)C1` (centres unmarked) [Compound 86]: the median effective dose (ED50) is > 10 mg/kg in assay [1] (setting [4]) and > 30 mg/kg in assay [1] (setting [5]). Besides, the figures for the minimal effective dose in assay [2] (setting [6]) and in assay [2] (setting [7]) were 10 mg/kg and > 10 mg/kg, respectively. In addition, the IC50 in assay [3] was 26.3 nM.
Turning to `CCOCCN1C2=C(C(=O)Nc3ccccc3F)C(=O)CCN2c2ccc(F)cc21` [Compound 160], the ED50 in assay [1] (setting [4]) was < 1 mg/kg; in assay [1] (setting [5]) it was 0.3 mg/kg. In addition, the minimal effective dose in assay [2] (setting [6]) was < 10 mg/kg; in assay [2] (setting [7]), 1 mg/kg. Moreover, the IC50 in assay [3] was 0.48 nM.
As to `COCCN1C2=C(C(=O)Nc3nccs3)C(=O)CCN2c2ccc(F)cc21` [Compound 155], the “Rat Conflict MED, po” value in assay [2] (po) was 3 mg/kg.
With `C[S+]([O-])CCN1C2=C(C(=O)Nc3ccccc3F)C(=O)CCN2c2ccc(F)cc21` (centres unmarked) [Compound 183, 7-Fluoro-1,2-dihydro-5-[2-(methylsulfoxy)ethyl]-3-oxo-N-(2-fluorophenyl)pyrido[1,2-a]benzimidazole-4-carboxamide], the half-inhibitory concentration (IC50) in assay [3] worked out at 6.19 nM.
With `COCCN1C2=C(C(=O)Nc3nccs3)C(=O)CCN2c2ccc(F)cc21` [Compound 140], the “Rat Conflict MED, po” value in assay [2] (po) is listed as > 10 mg/kg.
For the compound `C#CCN1C2=C(C(=O)Nc3ccccc3F)C(=O)CCN2c2ccc(F)cc21` [Compound 85], the figures for the 50% effective dose (ED50) in assay [1] (setting [4]) and in assay [1] (setting [5]) were 0.006 mg/kg and 1 mg/kg, respectively. The minimal effective dose in assay [2] (setting [6]) was < 10 mg/kg; in assay [2] (setting [7]), 1 mg/kg. Besides, the IC50 in assay [3] was found to be 0.072 nM.
`O=C1CCN2C(=C1C(=O)Nc1ccccc1F)N(CC(O)CO)c1cc(F)ccc12` (centres unmarked) [Compound 162, 7-Fluoro-1,2-dihydro-5-[2,3-dihydroxypropyl]-3-oxo-N-(2-fluorophenyl)pyrido[1,2-a]benzimidazole-4-carboxamide]: the IC50 in assay [3] was found to be 16 nM.
As to `COc1ccc(NC(=O)C2=C3N(CC#N)c4cc(F)ccc4N3CCC2=O)cc1` [Compound 82], the figures for the 50% effective dose (ED50) in assay [1] (setting [4]) and in assay [1] (setting [5]) were < 1 mg/kg and > 30 mg/kg, respectively. Moreover, the minimal effective dose in assay [2] (setting [7]) is > 10 mg/kg. In assay [3], the IC50 was determined as 8.55 nM.
Regarding `CC(=O)OCCN1C2=C(C(=O)Nc3ccccc3F)C(=O)CCN2c2ccc(F)cc21` [Compound 119, 7-Fluoro-1,2-dihydro-5-(2-acetoxyethyl)-3-oxo-N-(2-fluorophenyl)pyrido[1,2-a]benzimidazole-4-carboxamide], the IC50 in assay [3] was 0.25 nM.
On to `CCOCN1C2=C(C(=O)Nc3ccccc3F)C(=O)CCN2c2c1ccc(F)c2F` [Compound 128], for which the median effective dose (ED50) is ≥ 1 mg/kg in assay [1] (setting [4]) and > 30 mg/kg in assay [1] (setting [5]). Moreover, the minimal effective dose in assay [2] (setting [7]) was > 10 mg/kg. Also, the IC50 in assay [3] came to 126 nM.
As to `O=C1CCN2C(=C1C(=O)Nc1ccccc1F)N(CCNC(=O)c1ccccc1)c1cc(F)ccc12` [Compound 46], the IC50 in assay [3] was 6.1 nM.
